Like-named read-outs stand apart in the source and are kept apart here.
Experiments:
T98G = experiment: CellTiter-Glo cell proliferation assay, T98G; assay type: cell-based; conditions: Homo sapiens, T98G
Description: (§1) CellTiter-Glo® Luminescent Cell Viability assay (with Promega CellTiter 96® Luminescent CellTiter-Glo® kit) was used to study the proliferation inhibition by test compounds. Compounds were resuspended in DMSO to make a 25 mM stock suspension. Cells of cancer cell lines or normal tissues were seeded in 96-well plates at 1,500 to 5,000 cells/well overnight. Compounds were 2- or 3-fold diluted serially to obtain 10 concentrations. Then, the drugs were added to the cell wells by Bravo (Agilent) and incubated for 72 hours. The cells were lysed by adding CellTiter-Glo® Reagent (per manufacturer's instructions) and subsequently, the luminescence was read using EnVision® (PerkinElmer).
(§2) The percent of growth was calculated as follows. DMSO-treated cells were employed as vehicle control (High control, HC) and culture medium alone was employed as background (Low control, EC). % growth=100×(Lum sample−Lum EC)/(Lum HC−Lum EC). The ICso was calculated by concentration-response curve fitting using Graphpad Prism.
(§3) Hematological cancer cell lines tested included OCI-AML3, MV-4-11, KG-1, Kasumi-1, K562, THP-1; solid cancer cell lines tested included U87MG, U251, T98G, LN229, A172, H460, H2009, A549; normal cell lines tested included HCN2 and 3T3-L1. […] However, they were not toxic to in vitro cultured normal cells.

XPO1 = XPO1 (Homo sapiens, UniProt O14980); experiment: REV-GFP translocation assay in U2OS cells; assay type: cell-based; design: endogenous in cells; host or cells: U2OS cells stably expressing REV-GFP (clones from HD Biosciences); conditions: for IC50: Table 10
Description: LTD in China, and cells were cultured with growth medium. […] The highest Leptomycin B (LMB) concentration was set to 50 nM and serially diluted as the positive control, while the highest concentrations of other compounds were set to 10 μM. The cells treated with various drugs or DMSO, were incubated at 37° C. and 5% CO2 for 1 h. Then, cells were fixed with 4% formaldehyde for 15 min at room temperature. The cells were washed and stained with 100 μL Hoechst 33342 working solution for 10 min at room temperature in dark, after which the cell fluorescence was imaged with the High-Content Imaging System, ImageXpress® (Molecular Devices) using the 20× objective. The filters were set for Hoechst (350/461 nm) and GFP/FITC (488/509 nm) (wavelength for excitation and emission maxima). The % effect of REV nuclear translocation was calculated with the following formula: % effect=([…]- signals from testing compounds; ILMB-signals of 50 nM LMB group; ICTRL-signals of vehicle control group.

U87MG = experiment: CellTiter-Glo cell proliferation assay, U87MG; assay type: cell-based, human; conditions: Homo sapiens, U-87 MG
Description: as §1, §2, §3

[1] = Pharmacokinetic profile in plasma; assay type: in vivo; conditions: P.O., mice
Description: (§4) Blood was collected from mice (n=3, or 5) to contribute to the total of 10 time points (pre-dose, 5 min, 15 min, 30 min, 1 hour, 2 hours, 4 hours, 8 hours, 12 hours and 24 hours). At the designated time points, animals were anaesthetized under isoflurane, and approximately 110 μL of blood per time point was collected via retro-orbital puncture into pre-cooled K2EDTA tubes. Blood samples were put on wet ice and centrifuged (2000 g, 5 min at 4° C.) to obtain plasma within 30 minutes of sample collection. All samples were stored frozen at approximately −80° C. until analysis. Prior to analysis, samples were mixed with internal standard in acetonitrile, vortexed, centrifuged, and supernatant was injected for analysis. Concentration of compounds in plasma was determined using LC-MS-MS instrumentation (API 4000, Triple Quadrupole LC/MS/MS Mass Spectrometer). AUC values were calculated using Phoenix Win Nonlin 6.3 software package, PO-Noncompartmental model 200 (extravascular input).

LN-229 = experiment: CellTiter-Glo cell proliferation assay, LN-229; assay type: cell-based; conditions: Homo sapiens, LN-229
Description: as §1, §2, §3

HCN2 = experiment: CellTiter-Glo cell proliferation assay, HCN2 (normal brain); assay type: cell-based
Description: as §1, §2, §3

[2] = Pharmacokinetic profile in plasma; assay type: in vivo; conditions: mouse, iv, I. V., mice
Ratio of brain to plasma = assay type: in vivo; conditions: rats, 10 mg/kg PO
Description: (§5) Following collection, brain tissue was rinsed with cold saline, dried on filter paper, weighed and snap-frozen by placing on dry ice. All samples were stored frozen at approximately −80° C. until analysis. At the time of analysis, brain tissue was homogenized (homogenizing solution PBS, pH 7.4), mixed with internal standard in acetonitrile, vortexed, centrifuged, and supernatant was injected for analysis. Concentration of compounds in plasma was determined using LC-MS-MS instrumentation (API 4000, Triple Quadrupole LC/MS/MS Mass Spectrometer). Plasma samples were treated with the identical method (except homogenization step) and the concentration of compound in each matrix was calculated based on generated standard curves.

[3] = Pharmacokinetic profile summary; assay type: in vivo, mice or rats
Description: as §4, §5
The pharmacokinetic profile of test compounds in mice or rats was determined from several test compounds was determined using the methods described in Example 22.

U251 = experiment: CellTiter-Glo cell proliferation assay, U251; assay type: cell-based; conditions: Homo sapiens, U-251
Description: as §1, §2, §3

[4] = 72 hours, Table 1, read-out: Growth inhibition (IC50)

XPO1, sequence (O14980 whole entry): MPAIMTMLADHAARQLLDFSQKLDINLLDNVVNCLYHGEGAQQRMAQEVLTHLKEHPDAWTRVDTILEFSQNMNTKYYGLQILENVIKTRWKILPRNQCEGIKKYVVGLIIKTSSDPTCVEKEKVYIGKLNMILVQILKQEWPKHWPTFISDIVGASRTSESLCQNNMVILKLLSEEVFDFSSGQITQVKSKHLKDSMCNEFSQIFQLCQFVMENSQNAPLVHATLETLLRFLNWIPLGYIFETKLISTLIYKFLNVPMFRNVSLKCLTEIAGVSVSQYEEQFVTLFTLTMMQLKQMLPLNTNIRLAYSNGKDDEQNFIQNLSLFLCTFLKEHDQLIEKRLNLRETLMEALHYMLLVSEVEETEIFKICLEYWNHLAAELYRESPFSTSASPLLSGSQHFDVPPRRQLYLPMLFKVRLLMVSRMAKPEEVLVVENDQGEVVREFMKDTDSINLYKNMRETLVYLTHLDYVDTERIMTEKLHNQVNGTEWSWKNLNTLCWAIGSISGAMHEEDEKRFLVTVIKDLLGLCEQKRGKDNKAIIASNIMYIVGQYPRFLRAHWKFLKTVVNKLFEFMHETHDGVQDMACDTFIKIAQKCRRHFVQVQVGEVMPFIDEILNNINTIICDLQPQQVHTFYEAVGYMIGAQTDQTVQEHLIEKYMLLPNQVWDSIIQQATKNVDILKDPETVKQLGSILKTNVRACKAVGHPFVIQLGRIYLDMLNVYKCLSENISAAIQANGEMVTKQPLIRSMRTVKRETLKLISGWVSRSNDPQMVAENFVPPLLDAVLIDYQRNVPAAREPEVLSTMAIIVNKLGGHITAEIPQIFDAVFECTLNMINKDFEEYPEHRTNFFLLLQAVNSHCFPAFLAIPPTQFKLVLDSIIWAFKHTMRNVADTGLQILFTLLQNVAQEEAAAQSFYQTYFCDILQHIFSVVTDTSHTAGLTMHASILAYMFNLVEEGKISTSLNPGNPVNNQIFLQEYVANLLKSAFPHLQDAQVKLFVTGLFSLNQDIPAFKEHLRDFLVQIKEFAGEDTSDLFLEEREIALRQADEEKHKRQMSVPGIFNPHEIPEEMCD

`O=C(/C=C\n1cnc(-c2cc(C(F)(F)F)cc(S(F)(F)(F)(F)F)c2)n1)NNc1ccccn1` [Compound II, (Z)-3-(3-(3-(Pentafluorosulfanyl)-5-(trifluoromethyl)phenyl)-1H-1,2,4-triazol-1-yl)-N′-(pyridin-2-yl)acrylohydrazide] gave an IC50 (T98G; Table 11, read-out: Absolute IC50 (μM) T98G) of 1.9 µM, an IC50 (T98G; [4]) of 1.92 µM and an EC50 (XPO1; REV-EGFP U2OS cells, 1 h, Table 2, read-out: Rev-GFP/EC50) of 0.0285 µM. The IC50 (XPO1; first (or only) value of the cell) was 35.2 nM, the IC50 (XPO1; second value of the cell) was 21.8 nM and the EC50 (XPO1; Table 13, read-out: Rev-GFP assay/μM) was 0.035 µM. The IC50 (U87MG; 72 h, U87MG, 72 hours, Table 1, read-out: Growth inhibition (IC50)) was 630 nM, the IC50 (U87MG; Table 9, first value column, read-out: U87MG IC50) was 537 nM and the IC50 (U87MG; Table 9, second value column, read-out: U87MG IC50) was 723 nM. It also gave an AUG0-inf [1] of 13905 ng·h/mL, a Cmax ([1]; mouse, po) of 1600 ng/mL and a Tmax ([1]; mouse, po) of 2 h. For the same compound, the half-life ([1]; mouse, po) was 4.72 h, the MRT inf ([1]; mouse, po, read-out: MRT0-inf) was 7.84 h and the MRT last ([1]; mouse, po, read-out: MRT0-last) was 6.9 h. The IC50 (LN-229; Table 11, read-out: Absolute IC50 (μM) LN-229) was 0.8 µM, the IC50 (LN-229; [4]) was 0.805 µM and the IC50 (HCN2; 72 h, HCN2 normal cell line, 72 hours, Table 1, read-out: Growth inhibition (IC50)) was 44700 nM. For the same compound, the IC50 (HCN2; Table 9, read-out: HCN2 IC50) was 44700 nM, the AUC(0-t) [2] was 1620 ng·h/mL and the C0 [2] was 558 ng/mL. It also gave a clearance [2] of 10 mL/min/kg, a half-life [2] of 3.82 h and an MRT last ([2]; read-out: MRT0-last) of 4.76 h. It also gave a Vd ([2]; read-out: Vdss) of 3.2 L/kg, a Kp at 0.25 h (Ratio of brain to plasma; rat, brain/plasma, 0.25 h) of 0.716 and a Kp at 1 h (Ratio of brain to plasma; rat, brain/plasma, 1 h) of 0.954. For the same compound, the Kp at 8 h (Ratio of brain to plasma; rat, brain/plasma, 8 h) was 1.4, the “brain concentration (second number of pair)” value (“brain concentration” for short) (Ratio of brain to plasma; 0.25 h) was 301 ng/g and the “plasma concentration (first number of pair)” value (“plasma concentration” below) (Ratio of brain to plasma; 0.25 h) was 419 ng/g. The “brain concentration” value (Ratio of brain to plasma; 1 h) was 1191 ng/g, the “plasma concentration” value (Ratio of brain to plasma; 1 h) was 1274 ng/g and the “brain concentration” value (Ratio of brain to plasma; 8 h) was 937 ng/g. The “plasma concentration” value (Ratio of brain to plasma; 8 h) was 677 ng/g, the Kp ([3]; mouse, brain/plasma, 5 mpk/mice/AUC Ratio, read-out: B/P ratio) was 1.58 and the Cmax ([3]; mouse, po, 5 mg/kg, 5 mpk/mice, first number of Plasma/brain pair, read-out: Cmax/(ng/mL) Plasma) was 1040 ng/mL. It also gave a Cmax ([3]; mouse, po, 5 mg/kg, 5 mpk/mice, second number of Plasma/brain pair, read-out: Cmax/(ng/mL) brain) of 1770 ng/mL, an AUC ([3]; plasma, po, 10 mg/kg, 10 mpk) of 4150 ng·h/mL and a half-life ([3]; plasma, mice or rats) of 6.9 h. The Cmax ([3]; po, 10 mg/kg, plasma, 10 mpk, read-out: Cmax (ng/ml) plasma/10 mpk) was 796 ng/mL, the IC50 (U251; Table 11, read-out: Absolute IC50 (μM) U251) was 2.3 µM and the IC50 (U251; U251, 72 hours, Table 1, read-out: Growth inhibition (IC50)) was 2.34 µM.
